The assay relates to MV-4-11 cells. The experiment in a line: Gene expression microarray analysis (Affymetrix PrimeView) and GSEA. It is filed as cell-based, human. On the set-up: RFU PODN (11730768_x_at) / Fold change /veh PODN (11730768_x_at) / RFU LINC00158 (11744669_a_at) / Fold change /veh LINC00158 (11744669_a_at) / RFU DUSP10 (11751237_a_at) / Fold change /veh DUSP10 (11751237_a_at) / RFU ID3 (11757404_x_at) / Fold change /veh ID3 (11757404_x_at) / RFU PLEKHG5 (11737974_s_at) / Fold change /veh PLEKHG5 (11737974_s_at) / RFU LRRC4B (11730491_at) / Fold change /veh LRRC4B (11730491_at) / RFU GIMAP4 (11747438_a_at) / Fold change /veh GIMAP4 (11747438_a_at) / RFU KRT8 (11758183_x_at) / Fold change /veh KRT8 (11758183_x_at) / RFU CNN1 (11734310_a_at) / Fold change /veh CNN1 (11734310_a_at) / RFU VPS37D (11726825_at) / Fold change /veh VPS37D (11726825_at) / RFU C10orf10 (11716522_x_at) / Fold change /veh C10orf10 (11716522_x_at) / RFU KIR2DL2 /// KIR2DL4 /// KIR2DL5A /// KIR2DL5B /// KIR2DS1 /// KIR2DS2 /// KIR2DS3 /// KIR2DS4 /// KIR3DL3 /// KIR3DL3 /// KIR3DS1 (11738374_at) / Fold change /veh KIR2DL2 /// KIR2DL4 /// KIR2DL5A /// KIR2DL5B /// KIR2DS1 /// KIR2DS2 /// KIR2DS3 /// KIR2DS4 /// KIR3DL3 /// KIR3DL3 /// KIR3DS1 (11738374_at) / RFU C1QL1 (11718748_at) / Fold change /veh C1QL1 (11718748_at) / RFU TMPRSS4 (11747572_a_at) / Fold change /veh TMPRSS4 (11747572_a_at) / RFU HAMP (11756126_x_at) / Fold change /veh HAMP (11756126_x_at) / RFU RNFT2 (11725882_a_at) / Fold change /veh RNFT2 (11725882_a_at) / RFU NR4A2 (11747474_a_at) / Fold change /veh NR4A2 (11747474_a_at) / RFU ABCC12 (11746883_a_at) / Fold change /veh ABCC12 (11746883_a_at) / RFU TMEM136 (11760407_x_at) / Fold change /veh TMEM136 (11760407_x_at) / RFU CLDN22 /// WWC2 (11732394_at) / Fold change /veh CLDN22 /// WWC2 (11732394_at) / RFU HLA-DPB1 (11760878_x_at) / Fold change /veh HLA-DPB1 (11760878_x_at) / RFU SPINT1 (11716480_a_at) / Fold change /veh SPINT1 (11716480_a_at) / RFU GAP43 (11754022_s_at) / Fold change /veh GAP43 (11754022_s_at) / RFU A4GNT (11735810_at) / Fold change /veh A4GNT (11735810_at) / RFU PRB3 (11715151_x_at) / Fold change /veh PRB3 (11715151_x_at) / RFU TUBB4B (11761932_at) / Fold change /veh TUBB4B (11761932_at) / RFU CAPN14 (11732068_a_at) / Fold change /veh CAPN14 (11732068_a_at) / RFU TMCC2 (11721928_a_at) / Fold change /veh TMCC2 (11721928_a_at) / RFU IRGQ (11745062_a_at) / Fold change /veh IRGQ (11745062_a_at) / RFU FAM174B (11720279_a_at) / Fold change /veh FAM174B (11720279_a_at) / RFU TMPRSS4 (11748680_a_at) / Fold change /veh TMPRSS4 (11748680_a_at) / RFU FAM212B (11763350_a_at) / Fold change /veh FAM212B (11763350_a_at) / RFU PLEKHG5 (11743358_a_at) / Fold change /veh PLEKHG5 (11743358_a_at) / RFU ZSCAN30 (11745921_a_at) / Fold change /veh ZSCAN30 (11745921_a_at) / RFU CMKLR1 (11741424_a_at) / Fold change /veh CMKLR1 (11741424_a_at) / RFU LOC101060620 /// MAPK8IP1 (11723275_at) / Fold change /veh LOC101060620 /// MAPK8IP1 (11723275_at) / RFU SPTSSB (11747773_x_at) / Fold change /veh SPTSSB (11747773_x_at) / RFU PRSS12 (11739890_at) / Fold change /veh PRSS12 (11739890_at) / RFU BIN1 (11741810_x_at) / Fold change /veh BIN1 (11741810_x_at) / RFU WNT11 (11732464_a_at) / Fold change /veh WNT11 (11732464_a_at) / RFU C10orf10 (11716521_a_at) / Fold change /veh C10orf10 (11716521_a_at) / RFU C5orf56 (11738089_at) / Fold change /veh C5orf56 (11738089_at) / RFU CYB561 (11721691_x_at) / Fold change /veh CYB561 (11721691_x_at) / RFU ANKRD19P (11752326_a_at) / Fold change /veh ANKRD19P (11752326_a_at) / RFU OR2T12 /// OR2T33 /// OR2T8 (11738714_s_at) / Fold change /veh OR2T12 /// OR2T33 /// OR2T8 (11738714_s_at) / RFU VCAN (11748164_a_at) / Fold change /veh VCAN (11748164_a_at) / RFU JSRP1 (11732532_at) / Fold change /veh JSRP1 (11732532_at) / RFU KRTAP10-11 (11738290_x_at) / Fold change /veh KRTAP10-11 (11738290_x_at) / RFU MYO3A (11730013_a_at) / Fold change /veh MYO3A (11730013_a_at) / RFU EBF3 (11725865_a_at) / Fold change /veh EBF3 (11725865_a_at) / RFU CAMK2N1 (11719241_x_at) / Fold change /veh CAMK2N1 (11719241_x_at) / RFU C5orf56 (11738088_a_at) / Fold change /veh C5orf56 (11738088_a_at) / RFU OLFML3 (11715873_a_at) / Fold change /veh OLFML3 (11715873_a_at) / RFU LOC100653217 /// NTM (11731650_a_at) / Fold change /veh LOC100653217 /// NTM (11731650_a_at) / RFU MAPK11 (11762145_a_at) / Fold change /veh MAPK11 (11762145_a_at) / RFU FIZ1 (11724087_x_at) / Fold change /veh FIZ1 (11724087_x_at) / RFU OASL (11726364_x_at) / Fold change /veh OASL (11726364_x_at) / RFU SOX15 (11748057_x_at) / Fold change /veh SOX15 (11748057_x_at) / RFU CD79A (11719716_a_at) / Fold change /veh CD79A (11719716_a_at) / RFU HIST1H1D (11736915_at) / Fold change /veh HIST1H1D (11736915_at) / RFU CASKIN2 (11723855_a_at) / Fold change /veh CASKIN2 (11723855_a_at) / RFU LOC730098 (11760151_x_at) / Fold change /veh LOC730098 (11760151_x_at) / RFU OR4N2 (11742367_at) / Fold change /veh OR4N2 (11742367_at) / RFU PRRT2 (11749266_a_at) / Fold change /veh PRRT2 (11749266_a_at) / RFU SNX32 (11753110_a_at) / Fold change /veh SNX32 (11753110_a_at) / RFU CDHR5 (11726645_a_at) / Fold change /veh CDHR5 (11726645_a_at) / RFU RCAN1 (11760418_a_at) / Fold change /veh RCAN1 (11760418_a_at) / RFU FAM167A (11723789_a_at) / Fold change /veh FAM167A (11723789_a_at) / RFU FAM26E (11764081_at) / Fold change /veh FAM26E (11764081_at) / RFU ISYNA1 (11749810_s_at) / Fold change /veh ISYNA1 (11749810_s_at) / RFU ACY1 (11761880_at) / Fold change /veh ACY1 (11761880_at) / RFU 11764098_at / Fold change /veh 11764098_at / RFU SAMD14 (11745864_x_at) / Fold change /veh SAMD14 (11745864_x_at) / RFU NPB (11741838_a_at) / Fold change /veh NPB (11741838_a_at) / RFU TMPRSS6 (11731388_a_at) / Fold change /veh TMPRSS6 (11731388_a_at) / RFU KRTAP10-2 (11738614_at) / Fold change /veh KRTAP10-2 (11738614_at) / RFU ARHGAP8 /// PRR5-ARHGAP8 (11727945_x_at) / Fold change /veh ARHGAP8 /// PRR5-ARHGAP8 (11727945_x_at) / RFU KRTAP5-7 /// NADSYN1 (11734609_at) / Fold change /veh KRTAP5-7 /// NADSYN1 (11734609_at) / RFU RASL12 (11751679_a_at) / Fold change /veh RASL12 (11751679_a_at) / RFU CDKN2B (11736163_a_at) / Fold change /veh CDKN2B (11736163_a_at) / RFU PRF1 (11729649_at) / Fold change /veh PRF1 (11729649_at) / RFU, ZNF638 /// ZNF638-IT1 / Fold change vs veh, ZNF638 /// ZNF638-IT1 / RFU, PANK3 / Fold change vs veh, PANK3 / RFU, SH3YL1 / Fold change vs veh, SH3YL1 / RFU, ZEB2 / Fold change vs veh, ZEB2 / RFU, NRIP1 / Fold change vs veh, NRIP1 / RFU, PTTG1IP / Fold change vs veh, PTTG1IP / RFU, CAPN2 / Fold change vs veh, CAPN2 / RFU, MED14 / Fold change vs veh, MED14 / RFU, SNORA58 / Fold change vs veh, SNORA58 / RFU, C1orf63 / Fold change vs veh, C1orf63 / RFU, LRRFIP1 / Fold change vs veh, LRRFIP1 / RFU, NDUFAF7 / Fold change vs veh, NDUFAF7 / RFU, SLC12A2 / Fold change vs veh, SLC12A2 / RFU, IBTK / Fold change vs veh, IBTK / RFU, ESF1 / Fold change vs veh, ESF1 / Fold change vs veh, TMEM50B / RFU, TAOK1 / Fold change vs veh, TAOK1 / RFU, ACBD3 / Fold change vs veh, ACBD3 / RFU, TMA16 / Fold change vs veh, TMA16 / RFU, RWDD3 / Fold change vs veh, RWDD3 / RFU, BCAT1 / Fold change vs veh, BCAT1 / RFU, EDEM3 / Fold change vs veh, EDEM3 / RFU, TMEM33 / Fold change vs veh, TMEM33 / RFU, WDR75 / Fold change vs veh, WDR75 / RFU, AHCTF1 / Fold change vs veh, AHCTF1 / RFU, TFRC / Fold change vs veh, TFRC / RFU, ZDHHC17 / Fold change vs veh, ZDHHC17 / RFU, NOM1 / Fold change vs veh, NOM1 / RFU, ARL8B / Fold change vs veh, ARL8B / RFU, ZBTB11 / Fold change vs veh, ZBTB11 / RFU, TAMM41 / Fold change vs veh, TAMM41 / RFU, KIAA1704 /// LOC100996395 / Fold change vs veh, KIAA1704 /// LOC100996395 / RFU, ING1 / Fold change vs veh, ING1 / RFU, TRMT61B / Fold change vs veh, TRMT61B / RFU, FUBP3 / Fold change vs veh, FUBP3 / RFU, TP53 / Fold change vs veh, TP53 / RFU, TNKS2 / Fold change vs veh, TNKS2 / RFU, ZFP14 / Fold change vs veh, ZFP14 / RFU, ACTR2 / Fold change vs veh, ACTR2 / RFU, PPP3R1 / Fold change vs veh, PPP3R1 / RFU, PIK3R1 / Fold change vs veh, PIK3R1 / RFU, HNRNPA1 / Fold change vs veh, HNRNPA1 / RFU, RNF170 / Fold change vs veh, RNF170 / RFU, ZNF28 / Fold change vs veh, ZNF28 / RFU, RNGTT / Fold change vs veh, RNGTT / RFU, OGT / Fold change vs veh, OGT / RFU, BRD1 / Fold change vs veh, BRD1 / RFU, MARS / Fold change vs veh, MARS / RFU, ZNF655 / Fold change vs veh, ZNF655 / RFU, FAHD1 / Fold change vs veh, FAHD1 / RFU, BDP1 / Fold change vs veh, BDP1 / RFU, LRRCC1 / Fold change vs veh, LRRCC1 / RFU, ARID1A / Fold change vs veh, ARID1A / RFU, ZNF146 / Fold change vs veh, ZNF146 / RFU, ZNF330 / Fold change vs veh, ZNF330 / RFU, GPN3 / Fold change vs veh, GPN3 / RFU, C9orf123 / Fold change vs veh, C9orf123 / RFU, N4BP2L2 / Fold change vs veh, N4BP2L2 / RFU, ARFIP1 / Fold change vs veh, ARFIP1 / RFU, FAM179B / Fold change vs veh, FAM179B / RFU, BCL10 / Fold change vs veh, BCL10 / RFU, UHRF1BP1L / Fold change vs veh, UHRF1BP1L / RFU, BET1 / Fold change vs veh, BET1 / RFU, CNOT2 / Fold change vs veh, CNOT2 / RFU, ZNF268 / Fold change vs veh, ZNF268 / Fold change vs veh, ZNF507 / RFU, DGCR2 / Fold change vs veh, DGCR2 / RFU, WDSUB1 / Fold change vs veh, WDSUB1 / Fold change vs veh, HSP90B1 /// MIR3652 / RFU, ADSS / Fold change vs veh, ADSS / RFU, GK / Fold change vs veh, GK / RFU, ZNF148 / Fold change vs veh, ZNF148 / RFU, TAF9 / Fold change vs veh, TAF9 / RFU, SLC1A5 / Fold change vs veh, SLC1A5 / RFU, SLMO2 / Fold change vs veh, SLMO2 / RFU, ABCC4 / Fold change vs veh, ABCC4 / RFU, LOC101060439 /// RAP1B / Fold change vs veh, LOC101060439 /// RAP1B / RFU, RFX7 / Fold change vs veh, RFX7 / RFU, GTPBP10 / Fold change vs veh, GTPBP10 / RFU, CNEP1R1 / Fold change vs veh, CNEP1R1 / RFU, BIVM-ERCC5 /// ERCC5 / Fold change vs veh, BIVM-ERCC5 /// ERCC5 / RFU, ILF3 / Fold change vs veh, ILF3 / RFU 11762660_at / Fold change /veh 11762660_at / RFU VCAN (11757783_s_at) / Fold change /veh VCAN (11757783_s_at) / RFU DDX43 (11728927_at) / Fold change /veh DDX43 (11728927_at) / RFU KRT8 (11758188_x_at) / Fold change /veh KRT8 (11758188_x_at) / RFU NKD1 (11759106_at) / Fold change /veh NKD1 (11759106_at) / RFU SRD5A1 (11742802_a_at) / Fold change /veh SRD5A1 (11742802_a_at) / RFU TPSAB1 /// TPSB2 (11721975_s_at) / Fold change /veh TPSAB1 /// TPSB2 (11721975_s_at) / RFU GSTM3 (11746129_a_at) / Fold change /veh GSTM3 (11746129_a_at) / RFU IL23R (11737362_x_at) / Fold change /veh IL23R (11737362_x_at) / RFU TMEM51 (11727254_a_at) / Fold change /veh TMEM51 (11727254_a_at) / RFU PIWIL2 (11732686_x_at) / Fold change /veh PIWIL2 (11732686_x_at) / RFU ORM1 (11744905_x_at) / Fold change /veh ORM1 (11744905_x_at) / RFU CCDC152 (11743942_at) / Fold change /veh CCDC152 (11743942_at) / RFU ECM1 (11717891_a_at) / Fold change /veh ECM1 (11717891_a_at) / RFU IL23R (11748794_a_at) / Fold change /veh IL23R (11748794_a_at) / RFU TNFAIP8L3 (11732012_x_at) / Fold change /veh TNFAIP8L3 (11732012_x_at) / RFU MBOAT4 (11741988_at) / Fold change /veh MBOAT4 (11741988_at) / RFU 11764193_at / Fold change /veh 11764193_at / RFU TMEM53 (11763286_at) / Fold change /veh TMEM53 (11763286_at) / RFU MAGEB2 (11727129_at) / Fold change /veh MAGEB2 (11727129_at) / RFU TMEM200A (11744735_a_at) / Fold change /veh TMEM200A (11744735_a_at) / RFU CCDC152 (11751479_a_at) / Fold change /veh CCDC152 (11751479_a_at) / RFU FAM211A (11726209_a_at) / Fold change /veh FAM211A (11726209_a_at) / RFU RGS16 (11746705_a_at) / Fold change /veh RGS16 (11746705_a_at) / RFU VCAN (11755009_s_at) / Fold change /veh VCAN (11755009_s_at) / RFU RHOB (11743442_s_at) / Fold change /veh RHOB (11743442_s_at) / RFU RGS16 (11720943_a_at) / Fold change /veh RGS16 (11720943_a_at) / RFU RGS16 (11720944_at) / Fold change /veh RGS16 (11720944_at) / RFU, VPS4B / Fold change vs veh, VPS4B / RFU, CREB1 / Fold change vs veh, CREB1 / RFU, DNAJC13 / Fold change vs veh, DNAJC13 / RFU, GNAQ / Fold change vs veh, GNAQ / RFU, CDK5R1 / Fold change vs veh, CDK5R1 / RFU, ZRANB3 / Fold change vs veh, ZRANB3 / RFU, CUL4A / Fold change vs veh, CUL4A / RFU, CCNY / Fold change vs veh, CCNY / RFU, UFL1 / Fold change vs veh, UFL1 / RFU, COG3 / Fold change vs veh, COG3 / RFU, DIAPH2 / Fold change vs veh, DIAPH2 / RFU, SKA2 / Fold change vs veh, SKA2 / RFU, AFF3 / Fold change vs veh, AFF3 / RFU, LMF1 / Fold change vs veh, LMF1 / RFU, IPO11 / Fold change vs veh, IPO11 / RFU, DFFB / Fold change vs veh, DFFB / RFU, FOXP1 / Fold change vs veh, FOXP1 / RFU, CARD8 / Fold change vs veh, CARD8 / RFU, STRN3 / Fold change vs veh, STRN3 / RFU, ADK / Fold change vs veh, ADK / RFU, RASSF2 / Fold change vs veh, RASSF2 / RFU, WIPF1 / Fold change vs veh, WIPF1 / RFU, LARP1B / Fold change vs veh, LARP1B / RFU, RASA1 / Fold change vs veh, RASA1 / RFU, RB1 / Fold change vs veh, RB1 / RFU, PPFIA1 / Fold change vs veh, PPFIA1 / RFU, MAT2A / Fold change vs veh, MAT2A / RFU, CCT5 / Fold change vs veh, CCT5 / RFU, WDR92 / Fold change vs veh, WDR92 / RFU, CUX1 / Fold change vs veh, CUX1 / RFU, TTC7A / Fold change vs veh, TTC7A / RFU, TMEM135 / Fold change vs veh, TMEM135 / RFU, DEPTOR / Fold change vs veh, DEPTOR / RFU, CPM / Fold change vs veh, CPM / RFU, DNAJB6 / Fold change vs veh, DNAJB6 / RFU, CACNA2D3 / Fold change vs veh, CACNA2D3 / RFU, DTX4 / Fold change vs veh, DTX4 / RFU, TFCP2 / Fold change vs veh, TFCP2 / RFU, GMCL1 /// GMCL1P1 / Fold change vs veh, GMCL1 /// GMCL1P1 / RFU, AEBP2 / Fold change vs veh, AEBP2 / RFU, SNHG1 /// SNORD22 /// SNORD25 /// SNORD26 /// SNORD27 /// SNORD28 /// SNORD29 /// SNORD31 / Fold change vs veh, SNHG1 /// SNORD22 /// SNORD25 /// SNORD26 /// SNORD27 /// SNORD28 /// SNORD29 /// SNORD31 / Fold change (Aza/veh), C12orf56 (ProbeSet 11735607_a_at) / Fold change (ACY-1035/veh), C12orf56 (ProbeSet 11735607_a_at) / Fold change (Aza/veh), FGFR1OP (ProbeSet 11751329_s_at) / Fold change (ACY-1035/veh), FGFR1OP (ProbeSet 11751329_s_at) / Fold change (Aza/veh), VPS36 (ProbeSet 11739960_a_at) / Fold change (ACY-1035/veh), VPS36 (ProbeSet 11739960_a_at) / RFU SYPL1 (11715823_x_at) / Fold change /veh SYPL1 (11715823_x_at) / RFU IGFBP7 (11715501_s_at) / Fold change /veh IGFBP7 (11715501_s_at) / RFU REEP3 (11722064_at) / Fold change /veh REEP3 (11722064_at) / RFU IGLL1 (11728026_x_at) / Fold change /veh IGLL1 (11728026_x_at): dose or concentration left out as unconfirmed. The following applies: ProbeSet 11723141_at; LIST B.

Each structure is given as a SMILES string.

From paper PMC5218480 (PLoS ONE, 2017) come the findings set out here.

As to `Nc1ccc(-c2cccs2)cc1NC(=O)c1ccc2c(c1)cc(C1CC1)n2CCN1CCOCC1` [ACY-1035], the “Fold change vs veh, ZBTB11” value stood at 0.84.
